The text below walks through data of ChEMBL document CHEMBL1201862, “PubChem BioAssay data set” (2004).

Among the test systems are NCI/ADR-RES; OVCAR-4; HOP-92; T47D; CAKI-1; DU-145; MCF7; UACC-62; RXF 393; OVCAR-5; OVCAR-3; COLO 205; BT-549; HCC 2998; HCT-116; SK-MEL-28; KM12; HL-60; NCI-H23; SNB-75.
Holding throughout (test): growth of human tumour cells (NCI), 48 h

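How tested: cells in 96-well plates exposed to compound for 48 hours at five concentrations. GI50 is the concentration that inhibits growth by half.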 Activity calls are given as the source filed them. Rule as the data show it: active = GI50 up to about 1.1 µM and inactive = higher.

For the compound `Cc1cc(-c2ccccc2)nc2oc(=O)n(C)c12`, the GI50 was > 100 µM (inactive) in the assay on NCI/ADR-RES; > 100 µM (inactive) with OVCAR-4; 86.5 µM (inactive) in the assay with HOP-92; 94.6 µM (inactive) with T47D; 49.1 µM (inactive) in the assay on CAKI-1; > 100 µM (inactive) with DU-145. The GI50 in the assay with MCF7 is > 100 µM (inactive); with UACC-62 it was > 100 µM (inactive); in the assay with RXF 393, 28.1 µM (inactive); in the assay with OVCAR-5, > 100 µM (inactive); with OVCAR-3 it was > 100 µM (inactive); in the assay with COLO 205, > 100 µM (inactive). For the same compound, the GI50 in the assay on BT-549 is > 100 µM (inactive); in the assay on HCC 2998 it was > 100 µM (inactive); in the assay with HCT-116 it was 75 µM (inactive); in the assay with SK-MEL-28, > 100 µM (inactive); in the assay with KM12 it was > 100 µM (inactive); in the assay on HL-60, > 100 µM (inactive). The GI50 in the assay on NCI-H23 was 83.9 µM (inactive).

For the compound `COc1ccc2c(c1)CCc1cc(C(N)=O)c3nnnn3c1-2`, the GI50 in the assay on NCI/ADR-RES is > 84.5 µM (inactive); with OVCAR-4, > 81.3 µM (inactive); in the assay with HOP-92, 30.9 µM (inactive); in the assay with T47D, 25.2 µM (inactive); with CAKI-1 it was 36.7 µM (inactive); in the assay with DU-145 it was 23.7 µM (inactive). In addition, the GI50 is > 100 µM (inactive) in the assay on MCF7; 1.67 µM (inactive) in the assay with UACC-62; 16.9 µM (inactive) in the assay with RXF 393; > 100 µM (inactive) with OVCAR-5; > 54.3 µM (inactive) with OVCAR-3; > 100 µM (inactive) in the assay with COLO 205. Further, the GI50 in the assay on BT-549 was 35.5 µM (inactive); with HCC 2998, 39.8 µM (inactive); in the assay with HCT-116, 67.1 µM (inactive); with SK-MEL-28, > 100 µM (inactive); in the assay on KM12, > 100 µM (inactive); with HL-60, > 100 µM (inactive). Further, the GI50 in the assay on NCI-H23 is 60.1 µM (inactive).

`CC(C)CCNC(=O)c1ccc(CNC(=O)/C=C/c2ccc3c(c2)-c2ccccc2C3)cc1`: the GI50 is 34.2 µM (inactive) in the assay on NCI/ADR-RES; 22.9 µM (inactive) in the assay on OVCAR-4; 41.2 µM (inactive) with HOP-92; 39 µM (inactive) in the assay on T47D; 26.5 µM (inactive) with CAKI-1; 44.6 µM (inactive) in the assay with DU-145. Further, the GI50 was > 100 µM (inactive) in the assay with MCF7; > 100 µM (inactive) in the assay on UACC-62; 39.1 µM (inactive) in the assay on RXF 393; > 100 µM (inactive) in the assay on OVCAR-5; 23.4 µM (inactive) in the assay on OVCAR-3; 88.1 µM (inactive) in the assay with COLO 205. Also, the GI50 with SNB-75 is 23.7 µM (inactive); in the assay with BT-549 it was 87.3 µM (inactive); with HCC 2998 it was 71.3 µM (inactive); in the assay with HCT-116, 59.8 µM (inactive); in the assay on SK-MEL-28 it was 34 µM (inactive); in the assay on KM12 it was 33.3 µM (inactive). In addition, in the assay on NCI-H23, the GI50 was 94 µM (inactive).

For `COc1cc(/C=C2\C(=O)N(c3cccc(Cl)c3)C(c3ccccc3)S2(=O)=O)cc(OC)c1OC` (stereo not drawn), the GI50 in the assay with NCI/ADR-RES was 38.1 µM (inactive); in the assay on OVCAR-4, 85.5 µM (inactive); in the assay with HOP-92 it was 30.6 µM (inactive); in the assay on T47D it was 41.3 µM (inactive); with CAKI-1 it was > 100 µM (inactive); with DU-145, > 100 µM (inactive). Besides, the GI50 was 33.9 µM (inactive) in the assay with MCF7; 32.7 µM (inactive) in the assay with UACC-62; 26.2 µM (inactive) with RXF 393; > 100 µM (inactive) in the assay with OVCAR-5; 48.8 µM (inactive) in the assay on OVCAR-3; > 100 µM (inactive) in the assay with COLO 205. Moreover, the GI50 in the assay with BT-549 is > 100 µM (inactive); with HCC 2998 it was > 100 µM (inactive); in the assay on HCT-116, 24.1 µM (inactive); in the assay on SK-MEL-28, 69.2 µM (inactive); in the assay on KM12, 58.1 µM (inactive); with HL-60, 36.4 µM (inactive). The GI50 with NCI-H23 was 66.2 µM (inactive).

Consider `Cc1ccc(NC(=O)C23CC4CC(CC(C4)C2)C3)c(C(=O)NNC(=O)c2ccc(Cl)cc2)c1`, for which the GI50 is 21.2 µM (inactive) in the assay on NCI/ADR-RES; 16.7 µM (inactive) in the assay with OVCAR-4; 9.48 µM (inactive) in the assay with HOP-92; 18.3 µM (inactive) with T47D; 23.3 µM (inactive) in the assay on CAKI-1; 27.6 µM (inactive) in the assay with DU-145. Moreover, the GI50 in the assay with MCF7 was 17.4 µM (inactive); with UACC-62 it was 19.5 µM (inactive); in the assay on RXF 393, 15 µM (inactive); in the assay on OVCAR-5, 17.3 µM (inactive); in the assay with OVCAR-3, 20.7 µM (inactive); in the assay with COLO 205, 27.2 µM (inactive). For the same compound, the GI50 in the assay with SNB-75 is < 0.01 µM (active); in the assay on BT-549 it was 35.9 µM (inactive); with HCC 2998, 12.9 µM (inactive); in the assay with HCT-116 it was 25.8 µM (inactive); in the assay on KM12 it was 21.3 µM (inactive); with HL-60, 28.3 µM (inactive). The GI50 in the assay on NCI-H23 was 12.9 µM (inactive).

`NS(=O)(=O)c1ccc(NC(=S)N/C=C2\C(=O)Oc3ccccc3C2=O)cc1`: the GI50 is 31.4 µM (inactive) in the assay on NCI/ADR-RES; 43 µM (inactive) in the assay with OVCAR-4; 15.3 µM (inactive) in the assay on HOP-92; 41.9 µM (inactive) in the assay with T47D; 19.3 µM (inactive) in the assay on CAKI-1; 27.4 µM (inactive) in the assay with DU-145. Also, the GI50 is 99.5 µM (inactive) in the assay on MCF7; 34.8 µM (inactive) with UACC-62; 12.2 µM (inactive) in the assay on RXF 393; 54.5 µM (inactive) with OVCAR-5; 27.2 µM (inactive) in the assay on OVCAR-3; 40.5 µM (inactive) with COLO 205. In addition, the GI50 is 4.2 µM (inactive) in the assay with SNB-75; 34.7 µM (inactive) with BT-549; 34.8 µM (inactive) with HCC 2998; 33.5 µM (inactive) with HCT-116; 16.5 µM (inactive) in the assay on KM12; 21.4 µM (inactive) in the assay with HL-60. Also, in the assay on NCI-H23, the GI50 is 38.5 µM (inactive).

As to `COc1c2c(c(CC=C(C)C)c3oc(=O)c(-c4ccc(O)cc4)c(O)c13)OC(C)(C)C=C2` [LONCHOCARPIC ACID], the GI50 was 28.7 µM (inactive) in the assay with NCI/ADR-RES; 17.7 µM (inactive) in the assay on OVCAR-4; 27.2 µM (inactive) in the assay on HOP-92; 14.3 µM (inactive) with T47D; 40.6 µM (inactive) in the assay with CAKI-1; 38.1 µM (inactive) in the assay with DU-145. In addition, the GI50 in the assay with MCF7 was 16.8 µM (inactive); in the assay with UACC-62 it was 21.2 µM (inactive); in the assay on RXF 393, 1.41 µM (inactive); with OVCAR-5 it was 42.9 µM (inactive); with OVCAR-3, 15.7 µM (inactive); in the assay on COLO 205 it was 23.4 µM (inactive). In addition, the GI50 with BT-549 is 41.8 µM (inactive); in the assay with HCC 2998, 20.8 µM (inactive); in the assay with HCT-116, 15.7 µM (inactive); with SK-MEL-28 it was 25.9 µM (inactive); in the assay with KM12 it was 14.4 µM (inactive); in the assay on HL-60, 21.2 µM (inactive). The GI50 in the assay with NCI-H23 was 43.9 µM (inactive).
